# Data published in a melting point compilation (Tetko et al.; mined from patent text by program, amines drawn as free bases though some values may be those of a salt).
row,SMILES,melting point [°C]
1,CSCCC(NC(=O)c1ccc(COc2cccnc2)cc1Oc1ccccc1)C(=O)O (centres undefined),195
2,CS(=O)(=O)c1ccc(C2=C(c3ccccc3)C(=O)OC23CCCC3)cc1,142 to 143
3,NC(=O)NCCNc1ccc([N+](=O)[O-])cc1Cl,188
4,c1ccc(COc2cnc(N3CCNCC3)nc2)cc1,94 to 97
5,CN(Cc1ccc(NC(=O)C2=Cc3cc(-c4cc5ccccc5s4)ccc3S(=O)(=O)CC2)cc1)C1CCOCC1,270 to 271
6,O=c1cc2c(nn1-c1ccc(Cl)cc1)-c1cc(Br)sc1S(=O)CC2 (centres undefined),184 to 185
7,O=[N+]([O-])c1ccc(Cl)c(C=Cc2nc3ccccc3s2)c1,188 to 189
8,CCOC(=O)c1ccc(-c2cnc3c(c2)N(Cc2c(F)ccc(F)c2Cl)C(=O)CN3)cc1,180 to 182
9,Cc1ccncc1-c1cccc(OC2SCC(O)C(O)C2O)c1 (centres undefined),143
10,CN(CCc1ccccc1)C(=O)Cn1cc(C=Cc2nnn[nH]2)c2cc(OCc3ccccc3)ccc21,203 to 205
11,Cc1noc(NS(=O)(=O)c2ccsc2C/C=C/c2ccc3c(c2)OCO3)c1Br,147 to 149
12,Cc1nnc(OC(=O)N2CCN(C)CC2)n1-c1ccc(Cl)cn1,214 to 216
13,Cc1nnsc1C(=O)Nc1ccc(-n2nc(-c3nccs3)cc2C#N)cc1,230
14,CCOC(=O)CN(CC1CC2c3cccc4[nH]cc(c34)CC2N(C)C1)C(=O)NC(C)C (centres undefined),118 to 120
15,COc1cc(N)c(Cl)cc1C(=O)NCC12CCCN(CCC1)C2,202 to 203
16,O=C1NC(=O)c2ccccc2C1=CNc1ccc(-c2ccccc2)cc1,261 to 262
17,COc1ccc(Cc2oc3cccc(O)c3c2C)cc1,130 to 133
18,OC(Cc1ccc(Cl)cc1Cl)(Cn1ccnc1)c1ccc(C2CCCCC2)cc1 (centres undefined),142
19,Cc1nc2cccc(C)n2c(=O)c1CCN1CCN(c2cccc(Cl)c2)CC1,116 to 118
20,CCOc1ccc(-c2ccc(C3COC(c4c(F)cccc4F)=N3)cc2)cn1 (centres undefined),119
21,ClCc1coc(-c2cccc(OCc3ccccc3)c2)n1,49 to 50
22,NC1=Nc2ccccc2C2CCCC12F (centres undefined),174 to 176

row,SMILES,melting point [°C]
1,CNc1nc(-c2cccc(NC(=O)c3ccc(O)cc3)c2)c2cc(OC)c(OC)cc2n1,178 to 180
2,CC(=O)N(CCCc1ccccc1)[C@H]1CC[C@H](c2ccc(O)cc2)CC1,175 to 180
3,COc1cc2c(O)c3c(c(-c4ccc5c(c4)OCO5)c2cc1OC)C(=O)OC3,280 to 282
4,CCc1[nH][nH]c(=O)c1Cc1ccc2ccccc2c1,145 to 147
5,NC(=O)c1cccc(Cn2ccc(OCc3ccc(F)cc3F)c(Br)c2=O)c1,198 to 201
6,CC1(C)[C@H](Cc2noc(C(F)(F)F)n2)CC[C@]1(C)NCC(=O)N1C[C@@H](F)C[C@H]1C#N,130 to 131
7,CC12C=CCC1c1ccc3cc(O)ccc3c1CC2 (centres undefined),162 to 163
8,CCn1nc(C(C)(F)F)nc1Cc1ccc(-c2ccccc2-c2nnn[nH]2)nc1,103 to 104
9,COCCOCOc1c(C(C)(C)C)cc(-c2n[nH]c(=S)s2)cc1C(C)(C)C,134 to 135
10,CC(=O)c1cc(O)c(C)cc1O,144 to 146
11,CCc1cc(-c2ccc(-c3cc(CCC(=O)NCc4cccnc4)[nH]n3)cc2)ccc1O,210 to 214
12,CCn1c(=O)ccc2cnc(Nc3cccc(F)c3OC)nc21,92 to 93
13,NC(=O)c1c(N)sc(-c2ccc(F)cc2)c1-c1ccccc1,205 to 207
14,CCOC(=O)N1C(C)=CC(C(=O)OCC)(c2cccc(OCC3CO3)c2)C=C1C (centres undefined),116
15,COc1cnc2c(c1)c(CCNC(=O)c1ccco1)c1n2CCCO1,70 to 71
16,COc1ccc(N)cc1C(=O)NCc1ccc(C(F)(F)F)cc1,115 to 117
17,Cc1ccc(N2C(=O)C(O)=C(C(=O)c3cccc(Cl)c3)C2c2ccc(C(C)C)cc2)nn1 (centres undefined),271
18,CCOC(=O)c1cc(=O)c(Oc2ccccc2OC)co1,74 to 76
19,CCOC(=O)c1oc2c(-c3ccc(F)cc3)c(-c3ccc(S(C)(=O)=O)cc3)nn2c1C,203 to 204
20,O=c1oc(-c2ccccc2)cc(O)c1N(Cc1ccccc1)Cc1ccccc1,130 to 135
21,Cc1cc(C)n(-c2nc(Nc3ccccc3C)c3ccccc3n2)n1,240 to 244
22,O=C(CN1CCOCC1)Nc1ccc(-n2nc(C3CC3)cc2C2CC2)cc1,178 to 184

row,SMILES,melting point [°C]
1,CCOC(=O)c1c(C)cc(NC=O)c(C(=O)O)c1C,146 to 148
2,COCCCCCCCCCCCC(=O)Nc1cccc(C(=O)O)c1,169 to 171
3,CN(C)c1ccc(-c2cc(C(F)(F)F)c3c(-c4ccccc4)n[nH]c3n2)cc1,227
4,O=C(O)c1ccc2c(c1)C1(c3ccccc3-2)c2ccccc2-c2ccc(C(=O)O)cc21,352
5,C=CCN1CCc2c(sc(N)c2C(=O)c2ccc(Br)cc2)C1,116 to 118
6,CN(C)Cc1c(-c2ccccc2)[nH]c2nccnc12,191 to 192
7,OC1(C#Cc2cccc(Cl)c2)CCNC1 (centres undefined),153 to 160
8,CC(C)[C@@H]1CC[C@@H](C)C[C@H]1OC(=O)N1C(=O)O[C@@H](C(F)(F)F)[C@@H]1C(C)C,80 to 82
9,CS(=O)(=O)c1ccc(C(=O)O)c(Cl)c1CO,240 to 245
10,CC(CCCc1ccc(CCCCNC(=N)NC(=O)c2nc(Cl)c(N)nc2N)cc1)NCC(O)c1cccc(O)c1 (centres undefined),82 to 86
11,COc1ccc(S(=O)(=O)N2CCc3cccc(-c4ccc([N+](=O)[O-])cc4)c32)cc1,177 to 178
12,COC(C)(C)c1cc(C(C)(C)OC)cc(C(C)(C)OC)c1,44
13,COc1cc(Cl)c(C#N)cc1C(=O)O,100 to 102
14,O=C1CCC(N2Cc3c(CNC(=O)Nc4ccc(Cl)cc4)cccc3C2=O)C(=O)N1 (centres undefined),> 260
15,COC(=O)c1ccccc1NC(=O)c1cnc(S(C)(=O)=O)nc1,187 to 189
16,CCCc1ccc(S(=O)(=O)NCC2CCN(S(=O)(=O)c3ccc(CCC)cc3)CC2)cc1,158 to 159
17,CCCCOC(=O)Nc1ccnc(-c2ccncc2)n1,180 to 182
18,CC(C)CC1N=C(c2ccccc2)c2cc(Cl)ccc2N=C1NN (centres undefined),165 to 168
19,O=C1c2ccccc2COc2ccc(CCCCl)cc21,69 to 72
20,Cc1ccc(-c2nn(-c3ccccc3)c(N)c2C(N)=O)cc1,186 to 187

# Continued, values first:
row,melting point [°C],SMILES
1,140 to 142,Cc1cnc(CCCCNc2ncc(Cc3ccc(C)nc3)c(=O)[nH]2)c(Cl)c1
2,151 to 153,COc1cc(CO)nnc1OC
3,117 to 122,O=C(Nc1cc(Cc2n[nH]c(=O)c3ccccc23)ccc1N1CCOCC1)c1cccc(CCl)c1
4,94 to 102,Cn1cc2c(n1)SSSSS2
5,260 to 261,O=c1[nH]c2cc(Cl)ccc2c(=O)n1S(=O)(=O)c1c(Cl)cccc1Cl
6,174 to 175,CCOC(=O)c1cc2cc(F)cc(NS(=O)(=O)c3cccs3)c2[nH]1
7,215 to 225,O=C1NC(=O)C(=Cc2ccc(SCCc3ccc(Cl)cc3)cc2)S1
8,151 to 155,CC(=O)OCCCc1cc(C=C2SC(=S)N(C)C2=O)cc(CCCOC(C)=O)c1O
9,142 to 145,CC(=O)Oc1ccc(-n2nc(C(F)(F)F)cc2-c2ccc(S(C)(=O)=O)cc2)cc1
10,147 to 148,O=C(O)c1cc([N+](=O)[O-])ccc1Nc1ccc(CCCCCc2ccc(Cl)c(Cl)c2)cc1
11,156 to 158,CCCOc1ccc(N2CCCn3c2nc2c(Cl)ccc(C(OC(F)F)C(F)(F)F)c23)c(C)n1 (centres undefined)
12,154 to 155,CCOC(=O)Cn1cc(I)c(NC(=O)c2ccccc2)nc1=O
13,138,CC1=C(C)C(=O)C(CCCCCC2=C(C)C(=O)C(C)=C(C)C2=O)=C(C)C1=O
14,207,O=C(O)CCc1cc2cc(Cl)ccc2n1S(=O)(=O)c1ccc2c(c1)OCO2
15,97 to 99,COC(=O)CCC(C)C(=O)O (centres undefined)
16,108 to 109,CC(C)(O)CCCCCc1cccc(C=Cc2cc(CO)cc(CO)c2)c1
17,176 to 177,O=c1ccn(-c2cccnc2)nc1-c1ccnn1-c1ccccc1
18,101 to 102,O=C(CCl)N1CCC(c2noc3cc(F)ccc23)CC1

row,melting point [°C],SMILES
1,117 to 120,N#CC1OC(=O)c2c(F)cccc21 (centres undefined)
2,49 to 51,CC(C)CCCCNC(=O)n1sc2ccccc2c1=O
3,116 to 118,CN(C)C=C1CCc2ccn(S(=O)(=O)c3ccccc3)c2C1=O
4,96 to 99,CC(C)(C)NC(=O)[C@@H]1CCCN1C(=O)[C@@H](O)[C@H](Cc1ccccc1)NC(=O)[C@H](CC(N)=O)NCc1ccccc1
5,89 to 91,COc1ccccc1OCC1SCCN1C(=S)CC(C)=O (centres undefined)
6,228 to 230,CNC(=NS(C)(=O)=O)Nc1ccc(C2=NNC(=O)CC2C)cc1 (centres undefined)
7,218,N#Cc1ccc(C(=O)c2ccc(O)c(CC(=O)O)c2)cc1
8,170 to 171,Cn1c(N2CCOCC2)nc(C(=O)NCc2ccc(F)c(Cl)c2)c(O)c1=O
9,65 to 68,CSc1ncnn1C[C@]1(c2ccc(F)cc2F)O[C@@H]1c1ccccc1F (relative stereo)
10,58 to 63,CCCCCCCCC1(CCCCCCCC)c2cc(N)ccc2-c2ccc(N)cc21
11,110 to 112,CC(=O)OCC1OC(n2cc(C(N)=S)nn2)C(OC(C)=O)C1OC(C)=O (centres undefined)
12,118 to 120,O=[N+]([O-])c1cc(Br)ccc1NCC(F)(F)F
13,66 to 67,C[Si](C)(C)C#Cc1ccc(C=O)cc1
14,166 to 168,CC(=O)n1nc(C(=O)NC2CN(C)CCN(Cc3ccccc3)C2)c2ccccc21 (centres undefined)
15,92 to 105,Cc1ccnc2c1nc(COc1ccc(CC3SC(=O)N(C(c4ccccc4)(c4ccccc4)c4ccccc4)C3=O)cc1)n2C (centres undefined)
16,118 to 120,Cc1c(NC(=O)C(CSC(=O)CC(C)C)Cc2ccccc2)cccc1C(=O)O (centres undefined)
17,169 to 170,CCCC(=O)NCCCCn1c(C)nc2c(N)nc3ccccc3c21
